For one series, the system named is Na/K ATPase. Description: Na/K ATPase assay (86Rb uptake into red blood cells).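 As to all read-outs here: washed human red blood cells in K-free Ringer, test agent preincubated 20 min, then 86Rb uptake over 4 h at 37 °C counted as CPM per tube versus water control.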 The following applies: for effect of adenosine-receptor blocker on stimulation of Na/K ATPase by inosine, adenosine, guanosine, deoxyadenosine or deoxyguanosine: FIG. 11; for effect of adenosine-receptor blocker on adenosine stimulation of Na/K ATPase: equimolar doses added together with adenosine (FIG. 5); for Na/K ATPase stimulatory activity of adenosine analogs and metabolites: 1 mM (FIG. 4); for effect of hormones on Na/K ATPase activity: doses of 10^-3 to 10^-9 M; for relative effectiveness at stimulating Na/K ATPase: 10^-3 Molar (FIG. 8); for stimulation of Na/K ATPase: human red blood cells, dose response (FIG. 3b, FIG. 8); for stimulation of Na/K ATPase in the presence of ouabain: partial inhibition / sub maximal doses of ouabain (FIG. 9); for effect of pyrimidines on Na/K ATPase: doses ranging from 10^-3 to 10^-10 M; for effect of phosphate analogs and bases on Na/K ATPase: FIG. 10; for Na/K ATPase activity in erythrocytes: 6-thio inosine and 6-thio guanosine both 1 mM (FIG. 17); for effect of equilibrative nucleoside transport inhibitor on purine stimulation of Na/K ATPase: dipyridamole 1 mM, NBTI 10 μM, purine 1 mM (FIGS. 12 and 13).

The subject of series [1] is rats in severe hemorrhagic shock. Conditions: for effect on shock-elevated plasma K^+: 0.5 hr; for Plasma K^+ 0.5 hr after Resuscitation: mean ± SE, N = 7/group; for survival compared to saline and cytidine controls (Kaplan-Meier): single dose of 2.5 mM in saline, 8 rats/group, p<0.001.
Method: Pentobarbital-anesthetized rats were subjected to severe hemorrhagic shock. Five groups of eight rats were resuscitated.
Plasma K^+ was measured from plasma taken before hemorrhage, before resuscitation and 0.5 hrs after resuscitation using a K^+ electrode (Jenco Electronics, Inc., San Diego, Calif.). Survival time between groups was compared by Kaplan-Meier survival Analysis.
The test system is the same in series [2]. The series is described as follows: Rat shock model for adenosine experiments (0.5 mM adenosine resuscitation). It counts as in vivo. How it is done: It was hypothesized that stimulation of Na/K ATPase with adenosine may reverse, alleviate or attenuate the effects of an endogenous inhibitor that appears during hemorrhagic shock. […] Blood samples (0.5 ml) were taken before hemorrhage, before resuscitation and 1 hr after resuscitation for measurement of plasma K and Na.
All animal procedures are conducted with the authorization of the Institutional Animal Care and Use Committee at the University of Maryland, School of Medicine. […] Blood samples (0.5 ml) were taken before hemorrhage, before resuscitation and 1 hr after resuscitation for measurement of plasma K and Na. Blood was centrifuged 3500 rpm for 2 min, plasma removed and K and Na was measured by flame photometer. Before and after resuscitation potassium (K) was analyzed by Newman Keul post hoc test after ANOVA.

Entries after “also recorded” stand apart in the source; their conditions may differ.

Method for Na/K ATPase: Human red blood cells of any group-type were donated for research by the Blood Bank of the University Of Maryland, School of Medicine. Five ml of red cells are washed 3 times in 40 ml of Potassium free Ringers solution (141 mM NaCl, 1 mM H2NaPO4, 0.5 mM CaCl2, 1 mM MgSO4, 4.5 mM glucose, 10 mM HEPES pH7.4). 50 μl of washed red cells are added to 220 μl of potassium free Ringers solution. 30, 10, 3 or 1 μl of ultra-filtrate, HPLC (high performance liquid chromatography) fraction, or adenosine, inosine, guanosine, deoxyadenosine, deoxyguanosine, caffeine, aminophylline, dipyridamole, NBTI, 6thioinosine, 6thioguanosine, or EHNA (all in buffer) is added to the mixture and incubated for 20 min. 4 μCi of 86RbCl is added and incubated for 4 hrs at 37° C. The mixture is than washed three times with 4° C. Potassium free Ringers solution and the cells counted in a gamma counter (Packard, Cobra II). Na/K ATPase activity is expressed as the CPM (counts per minute) (CPM/tube*4 hrs). The effects of ultra-filtrate or HPLC fractions on ^86Rb uptake into red cells are compared to equal volumes of either water (control) or, in some cases, 0.01 mM Ouabain (maximal inhibition).

Turning to `Cn1c(=O)c2[nH]cnc2n(C)c1=O` [aminophylline], in the series on Na/K ATPase, the “effect of adenosine-receptor blocker on stimulation of Na/K ATPase by inosine, adenosine, guanosine, deoxyadenosine or deoxyguanosine” value is “Neither of these adenosine-receptor blockers had a significant effect on stimulation of Na/K ATPase” and the “effect of adenosine-receptor blocker on adenosine stimulation of Na/K ATPase” value is “did not affect the ability of adenosine to stimulate Na/K ATPase”.

As for `Nc1ncnc2c1ncn2[C@@H]1O[C@H](COP(=O)(O)OP(=O)(O)O)[C@@H](O)[C@H]1O` [ADP], the “Na/K ATPase stimulatory activity of adenosine analogs and metabolites” value in the series with Na/K ATPase was “little or no Na/K ATPase stimulatory activity”.

As to `Nc1ncnc2c1ncn2[C@@H]1O[C@H](COP(=O)(O)OP(=O)(O)OP(=O)(O)O)[C@@H](O)[C@H]1O` [ATP], in the series with Na/K ATPase, the “Na/K ATPase stimulatory activity of adenosine analogs and metabolites” value is “little or no Na/K ATPase stimulatory activity”.

Turning to `N[C@@H](Cc1cc(I)c(Oc2cc(I)c(O)c(I)c2)c(I)c1)C(=O)O` [thyroxine], the “effect of hormones on Na/K ATPase activity” value (shortened to “effect of hormones”) with Na/K ATPase was “had no effect on Na/K ATPase activity”.

For `Nc1ncnc2c1ncn2[C@H]1C[C@H](O)[C@@H](CO)O1` [deoxyadenosine], in the series on Na/K ATPase, the “relative effectiveness at stimulating Na/K ATPase” value (“relative effectiveness” for short) is “less effective than guanosine and inosine, but more effective than deoxyguanosine”; the “stimulation of Na/K ATPase” value is “stimulated Na/K ATPase in a dose-dependent manner”; the “stimulation of Na/K ATPase in the presence of ouabain” value (“stimulation … of ouabain” for short) is listed as “overcame partial inhibition by ouabain”.

Regarding `Nc1ccn([C@H]2C[C@H](O)[C@@H](CO)O2)c(=O)n1` [deoxycytidine], the “effect of pyrimidines on Na/K ATPase” value with Na/K ATPase is on record as “had no effect in the assay”.

As to `O=c1[nH]cnc2nc[nH]c12` [hypoxanthine], in the series with Na/K ATPase, the “Na/K ATPase stimulatory activity of adenosine analogs and metabolites” value was “little or no Na/K ATPase stimulatory activity”; the “effect of phosphate analogs and bases on Na/K ATPase” value is listed as “None of the purine analogs significantly affected Na/K ATPase”.

Consider `CCCCCC[C@@H]([C@@H](C)O)n1cnc2c(N)ncnc21` (racemic) [EHNA, erythrohydroxy3-nonyl-adenine], for which the “Na/K ATPase activity in erythrocytes” value in the series with Na/K ATPase is “stimulate Na/K ATPase”.

For the compound `C[C@@H]1O[C@@H](O[C@H]2C[C@@H](O)[C@]3(CO)[C@H]4[C@H](O)C[C@]5(C)[C@@H](C6=CC(=O)OC6)CC[C@]5(O)[C@@H]4CC[C@]3(O)C2)[C@H](O)[C@H](O)[C@H]1O` [ouabain], the “inhibition of Na/K ATPase stimulation by the rat plasma ultra-filtrate” value in the series on Na/K ATPase (FIG. 3a) was “inhibited in a dose-dependent manner”. In addition, the “inhibition of Na/K ATPase stimulation by adenosine” value in the series with Na/K ATPase (FIG. 3c) was “inhibited in a dose dependent manner”. For the same compound, in the series with Na/K ATPase (maximal doses of ouabain (FIG. 9)), the “inhibition of Na/K ATPase stimulation by inosine, guanosine, deoxyadenosine and deoxyguanosine” value was “inhibited by maximal doses of ouabain”.

Turning to `Nc1nc2c(ncn2[C@@H]2O[C@H](CO)[C@@H](O)[C@H]2O)c(=O)[nH]1` [guanosine], in the series with Na/K ATPase, the “relative effectiveness” value is listed as “both equally effective”, the “stimulation of Na/K ATPase” value is “stimulated Na/K ATPase in a dose-dependent manner” and the “stimulation … of ouabain” value is recorded as “overcame partial inhibition by ouabain”. Moreover, in series [1] (2.5 mM in saline), the “bradycardia on resuscitation from hemorrhagic shock” value is on record as “did not cause the bradycardia”, the “time to 50% mortality” value is recorded as “sooner than with inosine”, the “time to 100% mortality” value came to 200 min and the “effect on shock-elevated plasma K^+” value is reported as “lowered the shock-elevated plasma K^+”. The “Plasma K^+ 0.5 hr after Resuscitation” value in series [1] (2.5 mM in saline) is 3.01 ± 0.15 mM. In addition, in series [1] (rat, in vivo), the “adverse effects on resuscitation from hemorrhagic shock” value is “without any adverse effects”. In addition, the “survival compared to saline and cytidine controls (Kaplan-Meier)” value in series [1] is reported as “survived significantly longer than saline or cytidine controls; also recorded: significantly increased survival; also recorded: survived significantly longer”.

For the compound `NC[C@H](O)c1ccc(O)c(O)c1` [norepinephrine], in the series on Na/K ATPase, the “effect of hormones” value was “had no effect on Na/K ATPase activity”.

`Nc1ncnc2c1ncn2[C@@H]1O[C@H](COP(=O)(O)O)[C@@H](O)[C@H]1O` [AMP]: the “Na/K ATPase stimulatory activity of adenosine analogs and metabolites” value in the series with Na/K ATPase is recorded as “little or no Na/K ATPase stimulatory activity”.

As for `NCCc1ccc(O)c(O)c1` [dopamine], the “effect of hormones” value with Na/K ATPase is reported as “had no effect on Na/K ATPase activity”.

Take `NC(=O)CC[C@@H]1NC(=O)[C@H](Cc2ccccc2)NC(=O)[C@H](Cc2ccc(O)cc2)NC(=O)[C@@H](N)CSSC[C@@H](C(=O)N2CCC[C@H]2C(=O)N[C@@H](CCCN=C(N)N)C(=O)NCC(N)=O)NC(=O)[C@H](CC(N)=O)NC1=O` [vasopressin]: the “effect of hormones” value with Na/K ATPase is on record as “had no effect on Na/K ATPase activity”.

Insulin: the “effect of hormones” value in the series on Na/K ATPase is “had no effect on Na/K ATPase activity”.

As for `O=[N+]([O-])c1ccc(CSc2ncnc3c2ncn3[C@@H]2O[C@H](CO)[C@@H](O)[C@H]2O)cc1` [NBTI, S-(4-nitrobenzyl)-6-thioinosine], the “effect of equilibrative nucleoside transport inhibitor on purine stimulation of Na/K ATPase” value with Na/K ATPase is reported as “blocked stimulation of Na/K ATPase by any of the five purines tested”.

As for `Nc1ccn([C@@H]2O[C@H](CO)[C@@H](O)[C@H]2O)c(=O)n1` [cytidine, reference compound], the “effect of pyrimidines on Na/K ATPase” value in the series on Na/K ATPase is listed as “had no effect in the assay”. In series [1] (2.5 mM in saline), the “time to 100% mortality” value amounted to 50 min, the “time within which all resuscitated rats died” value is no more than 52 min, the “effect on shock-elevated plasma K^+” value was “did not lower plasma K^+ concentration” and the “Plasma K^+ 0.5 hr after Resuscitation” value is given as 4.30 ± 0.35 mM. The “mean arterial blood pressure after resuscitation” value in series [1] (2.5 mM in saline (FIG. 15)) is reported as “mean arterial blood pressure fell earlier”.

Take `Nc1ncnc2c1ncn2[C@@H]1O[C@H](CO)[C@@H](O)[C@H]1O` [adenosine]: in series [2] (1 hr after resuscitation, 0.5 mM), the “plasma K after resuscitation” value is recorded as “recovery of plasma K to prehemorrhage levels by 1 hr”. In series [2] (at about 70 minutes after resuscitation, 0.5 mM), this compound yielded a survival of 100%. Besides, the survival entry in series [2] (at about 160 minutes, 0.5 mM) was “about 25%”. The same compound gave a survival in series [2] (from 70 to 120 minutes, 0.5 mM) of 85%. In series [2] (shocked rats, 0.5 mM infusion (about 3 to 4.5 mg/kg)), the bradycardia entry is “caused bradycardia”. For the same compound, in series [2] (single dose 0.5 mM in saline, infusion volume equal to blood lost, p<0.01), the “survival compared to saline alone (Kaplan-Meier)” value is listed as “significantly prolonged survival”. In addition, in the series on Na/K ATPase, the “relative effectiveness” value was “more effective at stimulating Na/K ATPase than guanosine and inosine”; the “stimulation of Na/K ATPase” value is listed as “stimulated Na/K ATPase in a dose-dependent manner”; the “stimulation … of ouabain” value is listed as “this stimulation occurs even in the presence of ouabain”. Besides, in series [1] (2.5 mM in saline), the “effect on shock-elevated plasma K^+” value is on record as “lowered the shock-elevated plasma K^+” and the “Plasma K^+ 0.5 hr after Resuscitation” value turned out to be 3.10 ± 0.20 mM. Moreover, in series [1], the “survival compared to saline and cytidine controls (Kaplan-Meier)” value is “survived significantly longer than saline or cytidine controls; also recorded: significantly increased survival; also recorded: survived significantly longer”.

On to `Nc1nc2c(ncn2[C@H]2C[C@H](O)[C@@H](CO)O2)c(=O)[nH]1` [deoxyguanosine], for which, in the series on Na/K ATPase, the “stimulation of Na/K ATPase” value is “stimulated Na/K ATPase in a dose-dependent manner” and the “stimulation … of ouabain” value is given as “overcame partial inhibition by ouabain”.

Turning to `Nc1nc2nc[nH]c2c(=O)[nH]1` [guanine], in the series on Na/K ATPase, the “effect of phosphate analogs and bases on Na/K ATPase” value is recorded as “None of the purine analogs significantly affected Na/K ATPase”.

For `OC[C@H]1O[C@@H](n2cnc3c(S)ncnc32)[C@H](O)[C@@H]1O` [6-thioinosine], the “Na/K ATPase activity in erythrocytes” value with Na/K ATPase was “stimulate Na/K ATPase”.

As to `Cc1cn([C@H]2C[C@H](O)[C@@H](CO)O2)c(=O)[nH]c1=O` [thymidine], in the series on Na/K ATPase, the “effect of pyrimidines on Na/K ATPase” value is “had no effect in the assay”.

For `O=c1[nH]c(=O)c2[nH]cnc2[nH]1` [xanthine], the “Na/K ATPase stimulatory activity of adenosine analogs and metabolites” value in the series with Na/K ATPase was “little or no Na/K ATPase stimulatory activity”.

In the case of `O=c1ccn([C@@H]2O[C@H](CO)[C@@H](O)[C@H]2O)c(=O)[nH]1` [uridine], in the series with Na/K ATPase, the “effect of pyrimidines on Na/K ATPase” value is “had no effect in the assay”.

Take `Nc1ncnc2nc[nH]c12` [adenine]: in the series with Na/K ATPase, the “Na/K ATPase stimulatory activity of adenosine analogs and metabolites” value is “little or no Na/K ATPase stimulatory activity”; the “effect of phosphate analogs and bases on Na/K ATPase” value is “None of the purine analogs significantly affected Na/K ATPase”.

Take `O=c1[nH]c(=O)c2[nH]c(=O)[nH]c2[nH]1` [uric acid]: the “Na/K ATPase stimulatory activity of adenosine analogs and metabolites” value in the series with Na/K ATPase is listed as “little or no Na/K ATPase stimulatory activity”.

As to `OCCN(CCO)c1nc(N2CCCCC2)c2nc(N(CCO)CCO)nc(N3CCCCC3)c2n1` [dipyridamole], the “effect of equilibrative nucleoside transport inhibitor on adenosine stimulation of Na/K ATPase” value in the series with Na/K ATPase (dipyridamole 1 mM (FIG. 6)) is recorded as “blocked adenosine stimulation of Na/K ATPase”. Further, the “effect of equilibrative nucleoside transport inhibitor on purine stimulation of Na/K ATPase” value in the series on Na/K ATPase is listed as “blocked stimulation of Na/K ATPase by any of the five purines tested”.

On to `Nc1nc2c(ncn2[C@@H]2O[C@H](CO)[C@@H](O)[C@H]2O)c(=S)[nH]1` [6-thioguanosine], for which the “Na/K ATPase activity in erythrocytes” value with Na/K ATPase is “stimulate Na/K ATPase”.

On to `Cn1c(=O)c2c(ncn2C)n(C)c1=O` [caffeine], for which, in the series on Na/K ATPase, the “effect of adenosine-receptor blocker on stimulation of Na/K ATPase by inosine, adenosine, guanosine, deoxyadenosine or deoxyguanosine” value is “Neither of these adenosine-receptor blockers had a significant effect on stimulation of Na/K ATPase” and the “effect of adenosine-receptor blocker on adenosine stimulation of Na/K ATPase” value was “did not affect the ability of adenosine to stimulate Na/K ATPase”.

Consider `CNC[C@H](O)c1ccc(O)c(O)c1` [epinephrine], for which the “effect of hormones” value in the series with Na/K ATPase is given as “had no effect on Na/K ATPase activity”.

Source of the values: patent publication US20050187181A1 (University of Maryland, priority 2004, published 2005).
